Where a name gives a salt, the structure may show the parent alone. Read-outs that look alike come from different tables or passages of the source.
Biological target: SARS-CoV-2 3CLpro (Severe acute respiratory syndrome coronavirus 2, UniProt P0DTD1)
Assay: biochemical
Format: biochemical
Set-up: Replicate_1 / Replicate_2 / mean / mean (LOPAC_screen_w_protease): unit not given here
Conditions: for inhibition at 5 µM: 4 h
[1] = sheet LOPAC_screen_w_protease, primary screen with protease, mean of two replicates, read-out: mean
[2] = sheet LOPAC_screen_w_protease, primary screen with protease, replicate 1, read-out: Replicate_1
[3] = sheet LOPAC_screen_w_protease, primary screen with protease, replicate 2, read-out: Replicate_2
[4] = sheet LOPAC_screen_w_protease, LOPAC1280 primary screen with protease, 5 µM compound, mean of the two replicates
[5] = sheet LOPAC_screen_w_protease, LOPAC1280 primary screen with protease, 5 µM compound, replicate 1
[6] = sheet LOPAC_screen_w_protease, LOPAC1280 primary screen with protease, 5 µM compound, replicate 2
[7] = sheet LOPAC_screen_w_protease, LOPAC1280 primary screen at 5 µM, with protease, mean of the two replicates
[8] = sheet LOPAC_screen_w_protease, LOPAC1280 primary screen at 5 µM, with protease, replicate 1
[9] = sheet LOPAC_screen_w_protease, LOPAC1280 primary screen at 5 µM, with protease, replicate 2
[10] = LOPAC1280 primary screen with protease, 5 µM compound, replicate 1, read-out: Replicate_1 (LOPAC_screen_w_protease)
[11] = LOPAC1280 primary screen with protease, 5 µM compound, replicate 2, read-out: Replicate_2 (LOPAC_screen_w_protease)
[12] = LOPAC1280 primary screen with protease, 5 µM compound, mean of two replicates
[13] = read-out: Replicate_1 (LOPAC_screen_w_protease)
[14] = read-out: Replicate_2 (LOPAC_screen_w_protease)

CCCCCCCCCCCCCC(=O)O[C@@H]1[C@@H](C)[C@@]2(O)[C@@H](C=C(CO)C[C@]3(O)C(=O)C(C)=C[C@@H]23)[C@@H]2C(C)(C)[C@]12OC(C)=O [Phorbol 12-myristate 13-acetate]
inhibition at 5 µM (read-out: Replicate_1): 1.97% | inhibition at 5 µM (read-out: Replicate_2): -0.596% | inhibition at 5 µM (read-out: mean): 0.686%

COc1ccc2c(c1)c(CC(=O)N1CCOCC1)c(C)n2C(=O)c1ccc(Cl)cc1 [Indomethacin morpholinylamide]
inhibition at 5 µM [1]: 2.27% | inhibition at 5 µM [2]: 2.02% | inhibition at 5 µM [3]: 2.53%

CNCCC=C1c2ccccc2CCc2ccccc21 [Nortriptyline hydrochloride]
inhibition at 5 µM (read-out: Replicate_1): 2.88% | inhibition at 5 µM (read-out: Replicate_2): 1.57% | inhibition at 5 µM (read-out: mean): 2.22%

Cl.Cl.Fc1ccc(C(OCCN2CCN(CCCc3ccccc3)CC2)c2ccc(F)cc2)cc1 [GBR-12909 dihydrochloride]
mean [4]: 4.322 | Replicate_1 [5]: 4.518 | Replicate_2 [6]: 4.126

COc1ccc2[nH]cc(CCNC(C)=O)c2c1 [Melatonin]
inhibition at 5 µM [1]: 2.28% | inhibition at 5 µM [2]: 3.18% | inhibition at 5 µM [3]: 1.38%

COC1=C(OC)C(=O)c2ccccc2C1=O [2,3-Dimethoxy-1,4-naphthoquinone]
mean [7]: 0.8524 | Replicate_1 [8]: 0.1505 | Replicate_2 [9]: 1.554

CC(N)(C(=O)O)c1ccc(C(=O)O)cc1 (racemic) [(±)-alpha-Methyl-4-carboxyphenylglycine]
mean [4]: 4.794 | Replicate_1 [5]: 3.648 | Replicate_2 [6]: 5.939

CCN(CC)CCOCCOC(=O)C1(c2ccccc2)CCCC1 [Carbetapentane citrate]
inhibition at 5 µM [10]: 2.35% | inhibition at 5 µM [11]: 1.05% | mean (LOPAC_screen_w_protease) [12]: 1.698

COc1cc(-c2ccc(=O)[nH]n2)ccc1OC(F)F [Zardaverine]
inhibition at 5 µM [10]: 2.27% | inhibition at 5 µM [11]: 1.55% | mean (LOPAC_screen_w_protease) (LOPAC1280 primary screen with protease, 5 µM compound, mean of the two replicates): 1.91

Cc1cccc(C)c1OCC(N)C(C)C.I (stereo not drawn) [R(-)-Me5]
mean (LOPAC screen with protease) (sheet LOPAC_screen_w_protease, primary screen at 5 µM, mean of two replicates): 9.695 | Replicate_1 (LOPAC screen with protease) (sheet LOPAC_screen_w_protease, primary screen at 5 µM, replicate 1): 9.8488 | Replicate_2 (LOPAC screen with protease) (sheet LOPAC_screen_w_protease, primary screen at 5 µM, replicate 2): 9.541

(-)-3-Methoxynaltrexone hydrochloride
mean [4]: 5.384 | Replicate_1 [5]: 4.034 | Replicate_2 [6]: 6.735

CCN1C[C@]2(C)CC[C@H](O)[C@]34C1[C@@H](C[C@H]23)[C@@]1(O)C[C@H](OC)[C@H]2C[C@@H]4[C@@H]1[C@H]2O [Karakoline]
mean (LOPAC_screen_w_protease): 1.99 | inhibition at 5 µM [13]: 1.52% | inhibition at 5 µM [14]: 2.46%

Cl.NCCCCNS(=O)(=O)c1ccc2c(Cl)cccc2c1
mean [7]: 0.6799 | Replicate_1 [8]: 0.88 | Replicate_2 [9]: 0.4798

C[N+](C)(CCCCCC[N+](C)(C)CCCN1C(=O)c2cccc3cccc(c23)C1=O)CCCN1C(=O)c2cccc3cccc(c23)C1=O.[Br-].[Br-] [WB 64]
mean [7]: 0.6302 | Replicate_1 [8]: 0.2165 | Replicate_2 [9]: 1.044

C=CCn1c(=O)c2c(nc(-c3ccc(S(=O)(=O)O)cc3)n2C)n(C)c1=O
mean (LOPAC_screen_w_protease) [12]: 1.718 | Replicate_1 (LOPAC_screen_w_protease) (LOPAC1280 primary screen with protease, 5 µM compound, replicate 1): 2.434 | Replicate_2 (LOPAC_screen_w_protease) (LOPAC1280 primary screen with protease, 5 µM compound, replicate 2): 1.002

O=c1c(O)c(-c2ccc(O)c(O)c2)oc2cc(O)cc(O)c12 [Quercetin dihydrate]
inhibition at 5 µM [13]: 2.76% | inhibition at 5 µM [14]: 1.18%

C[N+](C)(C)CCOC(=O)CCC(=O)OCC[N+](C)(C)C [Succinylcholine chloride]
inhibition at 5 µM (sheet LOPAC_screen_w_protease, LOPAC1280 at 5 µM, mean of two replicates, read-out: mean): 1.08% | inhibition at 5 µM (sheet LOPAC_screen_w_protease, LOPAC1280 at 5 µM, replicate 1, read-out: Replicate_1): 1.05% | inhibition at 5 µM (sheet LOPAC_screen_w_protease, LOPAC1280 at 5 µM, replicate 2, read-out: Replicate_2): 1.11%

C=C(C)[C@H]1CC=C(C(=O)O)CC1 [(-)-Perillic acid]
mean (sheet LOPAC_screen_w_protease, primary screen with protease, 5 µM, mean of two replicates): -0.8057 | Replicate_1 (sheet LOPAC_screen_w_protease, primary screen with protease, 5 µM, replicate 1): 1.127 | Replicate_2 (sheet LOPAC_screen_w_protease, primary screen with protease, 5 µM, replicate 2): -2.738
